Experimental data as given in patent US8932594B2, “Adjuvants and methods of use” (The Scripps Research Institute, priority 2006, dated 2015).

Tests used:
CD1d = biological target: T1, CD1d (Mus musculus, UniProt P11609); experiment: Loading of CD1d molecules, native isoelectric focusing (IEF) gel assay; type: binding; conditions: 2 μM CD1d, 20 μM lipid, 1 hour at 37° C., no saposin B
T1 sequence (P11609 19-297 limits assumed): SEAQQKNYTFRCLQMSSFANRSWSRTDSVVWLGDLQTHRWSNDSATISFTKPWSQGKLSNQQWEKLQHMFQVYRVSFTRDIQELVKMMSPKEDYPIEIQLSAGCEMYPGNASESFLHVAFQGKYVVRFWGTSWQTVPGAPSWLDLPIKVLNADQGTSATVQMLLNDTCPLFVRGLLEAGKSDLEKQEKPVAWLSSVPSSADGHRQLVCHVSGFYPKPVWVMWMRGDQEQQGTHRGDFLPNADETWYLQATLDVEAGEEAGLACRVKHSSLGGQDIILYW
T1 sequence (P01887 21-119 partner): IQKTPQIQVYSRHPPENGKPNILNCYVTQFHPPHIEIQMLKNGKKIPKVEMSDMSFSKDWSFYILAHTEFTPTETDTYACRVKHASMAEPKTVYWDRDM
Protocol: Whether PBS-31 and PBS-32 could be efficiently loaded onto CD1d molecules was tested using a native isoelectric focusing (IEF) gel assay in the presence and absence of saposin B. For comparison, PBS-41 and PBS-46 (sulfo-β-galactosylceramides), PBS-36 and PBS-58 (sulfo-α-glucosylceramides) and PBS-35 and PBS-40 (β-glucosylceramides) were also evaluated in this assay.
Each 5 μl reaction contained 2 μM CD1d, 20 μM lipid and 10 μM saposin B. Reactions were incubated for 1 hour at 37° C. prior to gel loading.
Loaded species are indicated by a star in FIG. 3. The lanes of FIG. 3 were loaded as follows: 1, no lipid; 2, αGalCer; 3, PBS-31; 4, PBS-32; 5, no lipid; 6, iGB3; 7, PBS-40; 8, PBS-41; 9, PBS-35; 10, PBS-46; 11, PBS-58; 12, PBS-25 (positive control).

human NKT cell line = experiment: Activation of human NKT cell line, IL-4 and IFN-γ ELISA; type: cell-based; conditions: 24 hours incubation with PBLs or matured DCs
Protocol: The agonistic activity of PBS-31 and PBS-32 was examined for human NKT cells. A human NKT cell line was stimulated with irradiated peripheral blood lymphocytes (PBLs) or in vitro matured DCs in the presence of PBS-31, PBS-32 and control lipid, iGB3. (Mattner et al., Nature 434: 525-529 (2005) incorporated herein by reference in its entirety.) After 24 hours incubation, supernatants were harvested and assayed for the presence of IL-4 and IFN-γ by ELISA.

splenic DCs = experiment: Induction of DC maturation in vivo, FACS of splenic cells; design: species or system mice; conditions: for DC phenotype (CD40, CD80, CD86, MHC class II expression): CD11c+/CD8+ and CD11c+/CD8− cells
Protocol: Mice were injected with α-GalCer, PBS-31 and PBS-32 and DC differentiation was examined in splenic DCs by analyzing cell surface marker expression.
Three mice in each group were injected intravenously with 1 μg lipid or vehicle alone. At 24 hours post-injection, CD1d expression was examined on splenic B cells (B220+), macrophages (CD11b+) and DCs (CD11c+) by FACS analysis using a FACScalibur machine and FlowJo analysis software.
The maturation of DCs was analyzed by measuring expression of CD40, CD80, CD86, and MHC class II on CD11c^+/CD8^+ and CD11c^+/CD8^− cells (FIG. 8). […] PBS-32 and αGalCer reached maximal induction between 0.1 and 1 μg (data not shown).
Induction of DC maturation was unaffected in MyD88^−/− and MyD88^−/−TRIF^−/− knock out animals in which the Toll-like receptor pathway is partially, or totally impaired, respectively (data not shown). The CD1d-dependence was confirmed by injecting CD1d^−/− mice with the lipids.

NKT cells = experiment: Cytokine production by stimulated NKT cells (splenocytes), ELISA; type: cell-based; conditions: 24 hours incubation with splenocytes
Protocol: NKT cells were stimulated with PBS-32 or control compounds presented by plate-bound CD1d, splenocytes or purified mature DCs. Production of IFN-γ, IL-4, IL-10 and GM-CSF was measured by ELISA. […] The control lipids (glucosyl and galactosyl) were negative in the same assays. Cytokine induction was CD1d-dependent because induction was blocked by anti-CD1d antibodies and no cytokine induction was observed when DCs from CD1d^−/− mice were used (data not shown).

[1] = tested on: CD1d-restricted Vα14 NKT hybridoma cell, DN32.D3; experiment: Stimulation of NKT hybridoma DN32.D3 by lipid-pulsed APCs, IL-2 release; type: cell-based, mice; conditions: for presentation by DCs isolated from CD1-TD mice: DCs with disrupted cytoplasmic tail of CD1d, data not shown; for presentation by splenocytes to DN32.D3 (IL-2 release): irradiated splenocytes, 24 hours
Protocol: Compounds PBS-31, PBS-32, and control lipids were evaluated for their ability to stimulate a canonical CD1d-restricted Vα14 NKT hybridoma cell, DN32.D3 in an assay described by Lantz, et al., J. Exp. Med. 180: 1097-1106 (1994). Irradiated splenocytes were pulsed with decreasing concentrations of the lipids and control compounds, and incubated with DN32.D3 cells for 24 hours. Supernatants were harvested and IL-2 release was measured using a [^3H]-thymidine incorporation assay with an IL-2 dependent cell line as described by Cantu, et al., J. Immunol. 170:4673-4682 (2003).
Similar results were obtained when mature DCs were used as the APCs (data not shown). […] Therefore, presentation of PBS-31 and PBS-32 and concomitant stimulation of NKT cells is dependent on lysosomal targeting of CD1d.

DN32.D3 cells = experiment: DC-free assay: plate-coated murine CD1d, DN32.D3 cells, IL-2 production; type: cell-based; conditions: for requirement of processing by DCs for stimulation of NKT cells: plate-coated murine CD1d, with saposin B, 24 hours, data not shown
Protocol: To determine whether presentation of PBS-31 and PBS-32 to NKT cells was dependent on processing by DCs, a DC-free assay was used in which murine CD1d was coated on 96 well plates. PBS-31, PBS-32 and control compounds were added at various concentrations in the presence and absence of saposin B. DN32.D3 cells were added and supernatants were harvested after 24 hours and production of IL-2 was measured.

C57BI/6 mice = experiment: Serum cytokines after intravenous injection, ELISA; type: in vivo; conditions: 1 μg intravenous
Protocol: In vivo, following intravenous injection of 1 μg of positive control compound, αGalCer, or PBS-32, IFN-γ production in the serum of C57BI/6 mice was measured by ELISA and was very similar for both compounds (2500 pg/ml and 1500 pg/ml at 24 hours, respectively). IL-4 was undetectable following PBS-32 injection. […] At eight hours post-injection, PBS-32 induced 600 pg/ml IFN-γ.

[2] = tested on: murine Vα14 NKT cell line; experiment: Lipid-loaded CD1d tetramer staining of NKT cell line, FACS; type: binding; conditions: lipid-loaded CD1d tetramers; data not shown
Protocol: PBS-32-loaded CD1d tetramers, as well as control αGalCer tetramers, were prepared as described in Benlagha et al., J. Exp. Med. 191: 1895-1903 (2000) incorporated herein by reference in its entirety. The resulting tetramers were used to stain a murine Vα14 NKT cell line. After washing, the cells were analyzed on a FACSCalibur (BD Biosciences) using FlowJo software.

[3] = tested on: ovalbumin-specific CD8+ T cell and IgG responses; experiment: Adjuvant capability with ovalbumin antigen; type: in vivo, mice; conditions: for H-2Kb/ova257-264 tetramer positive cells in the CD8+ T cell pool: ovalbumin plus 1 μg lipid intravenous, peripheral blood, day 7 post-injection; for IgG anti-ovalbumin response: ovalbumin plus lipid, ELISA, compared to control group
Protocol: The potential adjuvanticity of PBS-31 and PBS-32 combined with a nominal protein antigen, ovalbumin, was conducted following a protocol similar to that of Fujii et al., J. Exp. Med. 198: 267-279 (2003) and Hermans et al., J. Immunol. 171: 5140-5147 (2003), which are incorporated herein by reference in their entireties. Ovalbumin was injected intravenously either alone or in combination with 1 μg of PBS-31, PBS-32 or PBS-57. […] In the absence of working tetramers to follow MHC class II responses, only CD8+ responses and B cell responses were evaluated.
CD8+ T cell responses were evaluated by enumerating the H-2K^b/ova257-264 tetramer positive cells in peripheral blood at 7 days post-injection and are expressed as the percentage H-2K^b/ova257-264 positive cells in the CD8+ T cell pool. At day 7 post-injection, antigen-specific H-2K^b/ova257-264 tetramer positive cells were increased to about 3% in the PBS-32 injected group whereas they expanded to almost 6% in the PBS-57 treated group (FIG. 9A). […] These strong IgG responses may indirectly reflect a significant boost of the ovalbumin-specific CD4+T helper compartment as well.
When CD1d^−/− mice were injected following the same protocol, no increase in either anti-ovalbumin IgG or in the anti-ovalbumin CD8+ T cells were noted (data not shown).

[4] = tested on: lymphocytic choriomeningitis virus (LCMV); type: in vivo, C57BI/6 mice; conditions: 1 μg intravenous before 10^6 PFU LCMVArm, day 8 post-infection, intracellular IFN-γ

CCCCCCCCCCCCCC[C@@H](O)[C@@H](O)[C@H](CO[C@H]1O[C@H](CO)[C@H](O)[C@H](O)[C@H]1O)NC(=O)CCCCCCC [PBS-25]
loading of CD1d in the absence of saposin B (CD1d): marginally loaded in the absence of saposin B

CCCCCCCCCCCCCCCCCCCCCCCCCC(=O)NC(COC1OC(CO)C(O)C(OS(=O)(=O)O)C1O)C(O)C(O)CCCCCCCCCCCCCC (stereo not drawn) [PBS-31]
IFN-γ secretion (human NKT cell line): significantly less | IL-4 secretion (human NKT cell line): almost equivalent amounts | DC maturation effect relative to the other lipids (splenic DCs; 1 μg intravenous, 24 hours): less pronounced effect | DC phenotype (CD40, CD80, CD86, MHC class II expression) (splenic DCs; 1 μg intravenous, 24 hours): mature phenotype | lesser potency on DC maturation at increased doses (splenic DCs; doses up to 50 μg per mouse, data not shown): could not be overcome | GM-CSF secretion (NKT cells): induced only GM-CSF | IFN-γ secretion (NKT cells): induced only GM-CSF | IL-4 secretion (NKT cells): induced only GM-CSF | IL-10 secretion (NKT cells): induced only GM-CSF | presentation by DCs isolated from CD1-TD mice [1]: inefficient at presenting | presentation by splenocytes to DN32.D3 (IL-2 release) [1]: efficiently presented | requirement of processing by DCs for stimulation of NKT cells (DN32.D3 cells): does not require processing by DCs

CCCCCCCCCCCCC/C=C/[C@@H](O)[C@H](CO[C@@H]1O[C@H](CO)[C@@H](O)[C@H](OS(=O)(=O)O)[C@H]1O)NC(=O)CCCCCCCCCCCCCCCCCCCCCCCCC [PBS-32, sulfoglucosylceramide]
IFN-γ secretion (human NKT cell line): able to induce | IL-4 secretion (human NKT cell line): almost equivalent amounts | DC phenotype (CD40, CD80, CD86, MHC class II expression) (splenic DCs; 1 μg intravenous, 24 hours): mature phenotype | GM-CSF secretion (NKT cells): induced secretion | IFN-γ secretion (NKT cells): induced secretion | IL-4 secretion (NKT cells): induced secretion | IL-10 secretion (NKT cells): not IL-10 | IL-4 in serum (C57BI/6 mice): undetectable | timing of IFN-γ production (C57BI/6 mice): earlier IFN-γ production than α-GalCer | IFN-γ production in the serum (C57BI/6 mice; at 24 hours): 1500 pg/mL | IFN-γ production in the serum (C57BI/6 mice; eight hours post-injection): 600 pg/mL | presentation by DCs isolated from CD1-TD mice [1]: inefficient at presenting | presentation by splenocytes to DN32.D3 (IL-2 release) [1]: efficiently presented | tetramer staining intensity [2]: less intense than for CD1d-αGalCer tetramers but homogenous | adjuvant activity with purified protein antigen ([3]; in combination with ovalbumin): had adjuvant activity | H-2Kb/ova257-264 tetramer positive cells in the CD8+ T cell pool [3]: about 3% | IgG anti-ovalbumin response [3]: dramatically boosted | relative potency in IL-2 production (DN32.D3 cells): consistently more potent than phytoceramide PBS-31 | requirement of processing by DCs for stimulation of NKT cells (DN32.D3 cells): does not require processing by DCs | anti-LCMV CD4+ T cell response (GP61, NP309) [4]: significant increase | anti-LCMV CD8+ T cell response (GP33, NP396, GP276) [4]: did equally well

CCCCCCCCCCCCCCCCCCCCCCCCCC(=O)NC(COC1OC(CO)C(O)C(OS(=O)(=O)O)C1O)C(O)C(O)CCCCCCCCCCCCCC (stereo not drawn) [PBS-36]
loading of CD1d in the absence of saposin B (CD1d): loaded onto CD1d in the absence of saposin B

CCCCCCCC/C=C\CCCCCCCCCCCCCC(=O)N[C@@H](CO[C@H]1O[C@H](CNC(C)=O)[C@H](O)[C@H](O)[C@H]1O)[C@H](O)[C@H](O)CCCCCCCCCCCCCC [PBS-57, reference compound]
H-2Kb/ova257-264 tetramer positive cells in the CD8+ T cell pool [3]: ~6% | IgG anti-ovalbumin response [3]: dramatically boosted

CCCCCCCCCCCCC/C=C/[C@@H](O)[C@H](CO[C@H]1O[C@H](CO)[C@@H](O)[C@H](OS(=O)(=O)O)[C@H]1O)NC(=O)CCCCCCCCCCCCCCCCCCCCCCCCC [PBS-58]
loading of CD1d in the absence of saposin B (CD1d): marginally loaded in the absence of saposin B

isoglobotrihexosylceramide [iGB3, reference compound]
IL-4 secretion (human NKT cell line): almost equivalent amounts
